Measured values taken from PubChem BioAssay AID328 (DTP/NCI, 2004).
Several values for one entry are separate records, joined by “and”; a condition that tells them apart may be missing. Equal entries are not always repeated. Inconclusive results and toxic doses are left out.

Tested on: BDF1 mice, P388 leukemia ip, median survival T/C
Assay: NCI In Vivo Anticancer Drug Screen. Data for tumor model P388 Leukemia (intraperitoneal) in B6D2F1 (BDF1) mice
Conditions: endpoint: median survival time, higher = longer survival
Procedure, shortened: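 Reported as T/C, where T is the survival measurement in dosed animals and C the same measurement in vehicle controls.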

[1] = dose: 100.0 mg/kg/injection, schedule: Q04DX003 (ip), vehicle: Klucel (hydroxypropylcellulose) (HPC)
[2] = dose: 200.0 mg/kg/injection, schedule: Q04DX003 (ip), vehicle: Klucel (hydroxypropylcellulose) (HPC)
[3] = dose: 400.0 mg/kg/injection, schedule: Q04DX003 (ip), vehicle: Klucel (hydroxypropylcellulose) (HPC)
[4] = dose: 100.0 mg/kg/injection, schedule: Q01DX009 (ip), vehicle: saline with Tween-80
[5] = dose: 200.0 mg/kg/injection, schedule: Q01DX009 (ip), vehicle: saline with Tween-80
[6] = dose: 400.0 mg/kg/injection, schedule: Q01DX009 (ip), vehicle: saline with Tween-80
[7] = dose: 50.0 mg/kg/injection, schedule: Q01DX009 (ip), vehicle: saline with Tween-80
[8] = dose: 100.0 mg/kg/injection, schedule: Q01DX009 (ip), vehicle: water
[9] = dose: 100.0 mg/kg/injection, schedule: Q04DX003 (ip), vehicle: water
[10] = dose: 100.0 mg/kg/injection, schedule: Q04DX003 (ip), vehicle: saline
[11] = dose: 200.0 mg/kg/injection, schedule: Q04DX003 (ip), vehicle: saline
[12] = dose: 100.0 mg/kg/injection, schedule: Q04DX003 (ip), vehicle: saline with Tween-80
[13] = dose: 200.0 mg/kg/injection, schedule: Q04DX003 (ip), vehicle: saline with Tween-80

Q: For CCCN1CCN(c2ccc([N+](=O)[O-])c3no[n+]([O-])c23)CC1, which T/C (dose: 2.5 mg/kg/injection, schedule: Q01DX009 (ip), vehicle: saline with Tween-80) is on record?
A: 122 % of control

Q: What about the T/C (dose: 10.0 mg/kg/injection, schedule: Q01DX009 (ip), vehicle: saline with Tween-80) of the same compound?
A: 155 % of control

Q: What does the source list for c1cc2c(cc1C1SCSCS1)OCO2?
A: T/C [1]: 90 % of control; T/C [2]: 100 % of control; T/C [3]: 100 % of control

Q: C[C@@H]1C[C@H]2C(=CC1=O)CC[C@@H]1[C@@H]2CC[C@]2(C)[C@@H](O)CC[C@@H]12 was tested. Which T/C [4] did it give?
A: 100 % of control

Q: What about the T/C [5] of the same compound?
A: 109 % of control

Q: What about the T/C [6] of the same compound?
A: 109 % of control

Q: For CC1(C)OC1[Si](C)(C)C (centres undefined), which T/C [7] is on record?
A: 107 % of control

Q: What about the T/C [4] of the same compound?
A: 121 % of control

Q: What about the T/C [5] of the same compound?
A: 111 % of control

Q: Which T/C [8] does the source give for CC(O)Cc1c[nH]c(=O)[nH]c1=O (centres undefined) here?
A: 92 % of control

Q: What about the T/C [9] of the same compound?
A: 90 % of control

Q: What about the T/C (dose: 200.0 mg/kg/injection, schedule: Q01DX009 (ip), vehicle: water) of the same compound?
A: 96 % of control

Q: And the T/C (dose: 200.0 mg/kg/injection, schedule: Q04DX003 (ip), vehicle: water)?
A: 105 % of control

Q: And the T/C (dose: 400.0 mg/kg/injection, schedule: Q04DX003 (ip), vehicle: water)?
A: 96 % of control

Q: O=C(NO)Nc1nc(Cl)c(Cl)nc1Cl was tested. Which T/C (dose: 3.12 mg/kg/injection, schedule: Q01DX009 (ip), vehicle: water) did it give?
A: 104 % of control

Q: And the T/C (dose: 6.25 mg/kg/injection, schedule: Q01DX009 (ip), vehicle: water)?
A: 110 % of control

Q: What about the T/C (dose: 6.25 mg/kg/injection, schedule: Q04DX003 (ip), vehicle: water) of the same compound?
A: 98 % of control and 101 % of control

Q: And the T/C (dose: 12.5 mg/kg/injection, schedule: Q01DX009 (ip), vehicle: water)?
A: 110 % of control

Q: What about the T/C (dose: 12.5 mg/kg/injection, schedule: Q04DX003 (ip), vehicle: water) of the same compound?
A: 100 % of control and 113 % of control

Q: What about the T/C (dose: 25.0 mg/kg/injection, schedule: Q01DX009 (ip), vehicle: water) of the same compound?
A: 118 % of control

Q: And the T/C (dose: 25.0 mg/kg/injection, schedule: Q04DX003 (ip), vehicle: water)?
A: 98 % of control and 118 % of control

Q: And the T/C (dose: 50.0 mg/kg/injection, schedule: Q04DX003 (ip), vehicle: water)?
A: 100 % of control and 109 % of control

Q: What about the T/C [8] of the same compound?
A: 118 % of control

Q: What about the T/C [9] of the same compound?
A: 109 % of control

Q: Which results are given for COc1ccc(C=Nc2ccc(OC(C)=O)cc2)cc1?
A: T/C (dose: 45.0 mg/kg/injection, schedule: Q01DX009 (ip), vehicle: Klucel (hydroxypropylcellulose) (HPC)): 105 % of control; T/C [7]: 110 % of control; T/C (dose: 65.0 mg/kg/injection, schedule: Q01DX009 (ip), vehicle: Klucel (hydroxypropylcellulose) (HPC)): 110 % of control; T/C (dose: 100.0 mg/kg/injection, schedule: Q01DX009 (ip), vehicle: Klucel (hydroxypropylcellulose) (HPC)): 110 % of control; T/C [4]: 100 % of control; T/C [10]: 104 % of control; T/C (dose: 150.0 mg/kg/injection, schedule: Q01DX009 (ip), vehicle: Klucel (hydroxypropylcellulose) (HPC)): 105 % of control; T/C (dose: 200.0 mg/kg/injection, schedule: Q01DX009 (ip), vehicle: Klucel (hydroxypropylcellulose) (HPC)): 115 % of control; T/C (dose: 200.0 mg/kg/injection, schedule: Q01DX009 (ip), vehicle: other): 104 % of control; T/C [5]: 120 % of control; T/C [11]: 118 % of control; T/C (dose: 300.0 mg/kg/injection, schedule: Q01DX009 (ip), vehicle: Klucel (hydroxypropylcellulose) (HPC)): 120 % of control; T/C (dose: 400.0 mg/kg/injection, schedule: Q01DX009 (ip), vehicle: other): 95 % of control; T/C (dose: 400.0 mg/kg/injection, schedule: Q04DX003 (ip), vehicle: saline): 109 % of control

Q: For CC[CH2][Pb]([Cl])([CH2]CC)[CH2]CC, which T/C (dose: 0.18 mg/kg/injection, schedule: Q01DX009 (ip), vehicle: DMSO) is on record?
A: 87 % of control

Q: And the T/C (dose: 0.37 mg/kg/injection, schedule: Q01DX009 (ip), vehicle: DMSO)?
A: 109 % of control

Q: What about the T/C (dose: 0.75 mg/kg/injection, schedule: Q01DX009 (ip), vehicle: DMSO) of the same compound?
A: 102 % of control

Q: How did the T/C (dose: 100.0 mg/kg/injection, schedule: Q01DX001 (ip), vehicle: saline with Tween-80) turn out when Cn1c(N)c(N=Nc2ccccc2)c(=O)[nH]c1=O was run?
A: 100 % of control

Q: And the T/C (dose: 200.0 mg/kg/injection, schedule: Q01DX001 (ip), vehicle: saline with Tween-80)?
A: 102 % of control

Q: What about the T/C (dose: 400.0 mg/kg/injection, schedule: Q01DX001 (ip), vehicle: saline with Tween-80) of the same compound?
A: 90 % of control

Q: Which results are given for COc1ccc2[nH]c(=S)[nH]c(=S)c2c1?
A: T/C [12]: 92 % of control; T/C [13]: 91 % of control; T/C (dose: 400.0 mg/kg/injection, schedule: Q04DX003 (ip), vehicle: saline with Tween-80): 100 % of control

Q: CC1OCC(Br)([N+](=O)[O-])CO1 (centres undefined) was tested. Which T/C (dose: 12.5 mg/kg/injection, schedule: Q04DX003 (ip), vehicle: saline) did it give?
A: 99 % of control

Q: And the T/C (dose: 25.0 mg/kg/injection, schedule: Q04DX003 (ip), vehicle: saline)?
A: 107 % of control

Q: COc1cccc(NC(=O)CCC(=O)O)c1 was tested. Which T/C [4] did it give?
A: 104 % of control

Q: And the T/C [5]?
A: 100 % of control

Q: What about the T/C [6] of the same compound?
A: 100 % of control

Q: How did the T/C (dose: 0.78 mg/kg/injection, schedule: Q01DX010 (ip), vehicle: saline) turn out when c1ccc(OCCC[P+](c2ccccc2)(c2ccccc2)c2ccccc2)cc1 was run?
A: 90 % of control

Q: And the T/C (dose: 1.56 mg/kg/injection, schedule: Q01DX010 (ip), vehicle: saline)?
A: 100 % of control

Q: And the T/C (dose: 3.13 mg/kg/injection, schedule: Q01DX010 (ip), vehicle: saline)?
A: 109 % of control

Q: What about the T/C (dose: 6.25 mg/kg/injection, schedule: Q01DX010 (ip), vehicle: saline) of the same compound?
A: 118 % of control

Q: And the T/C (dose: 12.5 mg/kg/injection, schedule: Q01DX010 (ip), vehicle: carboxymethylcellulose (CMC))?
A: 100 % of control

Q: Which T/C (dose: 12.5 mg/kg/injection, schedule: Q01DX009 (ip), vehicle: saline with Tween-80) does the source give for O=C(O)C1CC2C=CC1C2 (centres undefined) here?
A: 118 % of control

Q: What about the T/C (dose: 25.0 mg/kg/injection, schedule: Q01DX009 (ip), vehicle: saline with Tween-80) of the same compound?
A: 113 % of control

Q: And the T/C [7]?
A: 109 % of control

Q: And the T/C [4]?
A: 110 % of control and 100 % of control

Q: And the T/C [5]?
A: 90 % of control

Q: What about the T/C [6] of the same compound?
A: 86 % of control

Q: How did the T/C (dose: 0.16 mg/kg/injection, schedule: Q01DX009 (ip), vehicle: saline) turn out when COC[C@H]1OC(=O)c2coc3c2[C@@]1(C)C1=C(C3=O)[C@@H]2CCC(=O)[C@@]2(C)C[C@H]1OC(C)=O was run?
A: 108 % of control

Q: What about the T/C (dose: 0.31 mg/kg/injection, schedule: Q01DX009 (ip), vehicle: saline) of the same compound?
A: 115 % of control

Q: What about the T/C (dose: 0.63 mg/kg/injection, schedule: Q01DX009 (ip), vehicle: saline) of the same compound?
A: 116 % of control

Q: What about the T/C (dose: 2.5 mg/kg/injection, schedule: Q01DX009 (ip), vehicle: saline) of the same compound?
A: 117 % of control

Q: Which T/C (dose: 75.0 mg/kg/injection, schedule: Q01DX009 (ip), vehicle: saline with Tween-80) does the source give for CC(=O)OCC(OC(C)=O)C(OC(C)=O)C(OC(C)=O)C1COC(C)(C)O1 (centres undefined) here?
A: 94 % of control

Q: What about the T/C (dose: 150.0 mg/kg/injection, schedule: Q01DX009 (ip), vehicle: saline with Tween-80) of the same compound?
A: 86 % of control

Q: And the T/C (dose: 300.0 mg/kg/injection, schedule: Q01DX009 (ip), vehicle: saline with Tween-80)?
A: 91 % of control

Q: With CC(C)CCC[C@@H](C)[C@H]1CC[C@H]2[C@@H]3CC[C@H]4C[C@H]5N[C@H]5C[C@]4(C)[C@H]3CC[C@]12C as the compound, how does the T/C (dose: 50.0 mg/kg/injection, schedule: Q01DX001 (ip), vehicle: saline sonified) read?
A: 100 % of control

Q: And the T/C (dose: 100.0 mg/kg/injection, schedule: Q01DX001 (ip), vehicle: saline sonified)?
A: 95 % of control

Q: How did the T/C (dose: 25.0 mg/kg/injection, schedule: Q01DX001 (ip), vehicle: saline with Tween-80) turn out when N#C/C(=C/c1ccccc1)CBr was run?
A: 102 % of control

Q: And the T/C (dose: 50.0 mg/kg/injection, schedule: Q01DX001 (ip), vehicle: saline with Tween-80)?
A: 93 % of control

Q: Which results are given for COC(=O)C1C2CCC3C2C(C)(C)CCCC31C (centres undefined)?
A: T/C (dose: 25.0 mg/kg/injection, schedule: Q04DX003 (ip), vehicle: saline with Tween-80): 100 % of control; T/C (dose: 50.0 mg/kg/injection, schedule: Q04DX003 (ip), vehicle: saline with Tween-80): 95 % of control; T/C [12]: 104 % of control; T/C [13]: 118 % of control

Q: Which T/C (dose: 100.0 mg/kg/injection, schedule: Q01DX001 (ip), vehicle: other) does the source give for CCCC[N+](CCCC)(CCCC)CCCC.Cc1ccc([SH2+])c([SH2+])c1.Cc1ccc([SH2+])c([SH2+])c1.[Ni+3] here?
A: 112 % of control

Q: And the T/C [1]?
A: 109 % of control

Q: And the T/C [10]?
A: 115 % of control

Q: What about the T/C (dose: 200.0 mg/kg/injection, schedule: Q01DX001 (ip), vehicle: other) of the same compound?
A: 112 % of control

Q: What about the T/C [2] of the same compound?
A: 118 % of control

Q: And the T/C [11]?
A: 115 % of control

Q: And the T/C (dose: 265.0 mg/kg/injection, schedule: Q04DX003 (ip), vehicle: Klucel (hydroxypropylcellulose) (HPC))?
A: 116 % of control

Q: What about the T/C (dose: 400.0 mg/kg/injection, schedule: Q01DX001 (ip), vehicle: other) of the same compound?
A: 112 % of control

Q: And the T/C [3]?
A: 112 % of control
